Results: patent US20250049741A1, “COMPOSITION FOR PREVENTING OR TREATING ALZHEIMER'S DISEASE COMPRISING PHOSPHOLIPASE C ACTIVATOR AS AN ACTIVE INGREDIENT” (Korea University Research and Business Foundation, priority 2021, published 2025)

Columns and labels:
Assay type in all cases: cell-based, Sprague-Dawley rats
[1] = system: CA1 PCs in rat hippocampal slices; test: Ex vivo eCB / S-eCB mobilization protocol: eIPSC amplitudes by whole-cell voltage-clamp
Excerpt: To test the acute effect of AβO on hippocampal S-eCB mobilization, hippocampal slices from Sprague-Dawley rats (SD, 2 to 3 weeks old, DaeHan Biolink, Co., Ltd., Korea) were used. Male and female rats were used in all in vitro experiments. To test the chronic effect of AβO on hippocampus-dependent memory impairments caused by amyloidosis, the 5XFAD mouse model (6 to 7 months old, #34840-JAX, Jackson Laboratory, USA), which is a mouse model of Alzheimer's disease that mimics AβO depositions, was used. C57BL/6 mice (6 to 7 months old, KOATECH, Korea) were used as wild type (WT) control mice for 5XFAD mice. Male 5XFAD and C57BL/6 mice were used for all in vivo behavioral experiments. The 5XFAD mouse genotypes were identified by polymerase chain reaction (PCR) using DNA extracted from the tails of the mice. All animal-related procedures followed the guidelines of the Institutional Animal Care and Use Committee of Korea University (guidelines for SD rats: KUIACUC-2017-103, guidelines for C57BL/6 and 5XFAD mice: KUIACUC-2019-0068).
(§1) Soluble AβO was prepared according to a previous study (BMC Biol. 2020; 18(1):7). Specifically, Aβ1-42 (Aβ) and a scrambled form of Aβ as a control peptide were purchased in powder form. Aβ and scrambled Aβ were dissolved for monomerization in 1,1,1,3,3,3-hexafluoro-2-propanol (HFIP, Sigma Aldrich, USA) at a final concentration of 1 mM, and the solution was incubated for 90 minutes. After the HFIP was evaporated, the remaining thin and clear film of Aβ or scrambled Aβ was dissolved in dimethyl sulfoxide (DMSO, Sigma Aldrich, USA) to prepare 5 mM Aβ or scrambled Aβ stocks, which were aliquoted and frozen at −20° C. Aβ or scrambled Aβ stocks were thawed and diluted to 100 μM in artificial cerebrospinal fluid (ACSF). Thereafter, Aβ or scrambled Aβ stocks were incubated for oligomerization for 18 hours. The final AβO or scrambled AβO stock solution was diluted to a final concentration of 200 nM in 31.2 ml of ACSF, and rat hippocampal slices were treated with the stock solution for 20 minutes in a recovery chamber before measurement of brain signals. In control experiments for normal brain conditions using a vehicle, rat hippocampal slices were treated with 0.004% DMSO in ACSF.
(§2) The brains of SD rats were isolated following decapitation under isoflurane-induced anesthesia and transferred into ice-cold ACSF containing 126 mM NaCl, […], 1.25 mM NaH2PO4, 2 mM MgSO4, 2 mM CaCl2), 25 mM NaHCO3, and 10 mM glucose (pH 7.2 to 7.4). The ACSF was continuously oxygenated with 95% O2/5% CO2. Horizontal hippocampal slices (350 μm thickness) were obtained using a vibratome (VT1000S, Leica Biosystems, Germany) and immediately incubated at room temperature in a submerged chamber perfused with oxygenated ACSF for at least 1 hour.
To quantify eCB mobilization, the changes in eCB mobilization-induced Schaffer collateral (SC) nerve bundle stimulation-evoked inhibitory postsynaptic current (eIPSC) amplitudes were measured in CA1 PCs through the whole-cell voltage-clamp technique. The whole-cell voltage-clamp technique in CA1 PCs was performed using a MultiClamp 700B amplifier (Molecular Devices, USA) under an infrared differential interference contrast video microscope (BW51W, Olympus, Japan), using a borosilicate electrode (tip resistance: 4 to 8 MΩ) that was filled with an intracellular solution containing 145 mM CsCl, 10 mM HEPES, 2 mM EGTA, 4 mM QX-314, 4 mM Mg-ATP, 0.4 mM […], pH 7.2 to 7.3, and 270 to 280 mOsm/L. To record eIPSCs in the CA1 PCs, a stimulating electrode (A-M Systems, USA) was placed in a stratum radiatum to stimulate the SC pathway that carries CA3 PC axons. Electrical stimulation pulses of 200 to 400 μA amplitudes (20 to 40 μs) were generated using a constant current stimulator (model DS3, Digitimer Ltd., UK). eIPSCs were recorded in CA PCs every 1 second while maintaining the membrane potential at −70 mV.

[2] = system: hippocampal CA3-CA1 excitatory synapses; test: S-eCB mobilization induced spike timing-dependent potentiation (tLTP) protocol, EPSP slope
Procedure: as §1, §2

PLCβ1 = test: Western blot of PLCβ1 in rat hippocampal slices; conditions: AβO-treated rat hippocampal slices
Procedure: as §1, with “The final AβO or scrambled AβO stock solution was diluted to a final concentration of 200 nM in 31.2 ml of ACSF, and rat hippocampal slices were treated with the stock solution for 20 minutes in a recovery chamber before measurement of brain signals. In control experiments for normal brain conditions using a vehicle, rat hippocampal slices were treated with 0.004% DMSO in ACSF.” left out
Hippocampal PLCβ1 of SD rats and C57BL/6 or 5XFAD mice were prepared from homogenized hippocampi dissolved in 200 μL of RIPA buffer (Bio-Rad, USA), and were resolved on non-reducing 10% tris-glycine-sodium dodecyl sulfate-polyacrylamide gel electrophoresis (SDS-PAGE) gels (Bio-Rad, USA) using 4×Laemmli sample buffers (Bio-Rad, USA). […] Immunoreactivity was confirmed with enhanced chemiluminescence (Bio-Rad, USA) using a Fluorchem E system (ProteinSimple, USA) and analyzed with ImageJ software. […]

[3] = DMSO-treated rat hippocampal slices, D-AP5 50 μM or AM251 3 μM

N[C@H](C(=O)O)c1cc(O)cc(O)c1 [DHPG, (S)-3,5-dihydroxyphenylglycine]
first ten eIPSC amplitudes as % of the mean eIPSC amplitude measured at the baseline before the DHPG puff ([1]; DHPG (50 μM) puff alone, rat hippocampal slices, mean±SEM): 79±7% | eIPSC amplitude as % of the baseline eIPSC amplitude (S-eCB mobilization) ([1]; DHPG puff paired with 60-s-long postsynaptic neural spike trains at 1 Hz, DMSO-treated rat hippocampal slices, mean±SEM): 62±4%

Cc1cc(C(=O)O)ccc1[C@H](N)C(=O)O [LY367385]
eIPSC amplitudes following 60-s-long DHPG puff during 1 Hz neural spikes in the presence of mGluR1 antagonist ([1]; LY367385 100 μM, DMSO-treated rat hippocampal slices): decreased

Cc1cccc(C#Cc2ccccc2)n1 [MPEP, 2-methyl-6-(phenylethynyl) pyridine]
eIPSC amplitudes following DHPG puff during 1 Hz neural spikes in the presence of mGluR5 antagonist ([1]; MPEP 10 μM, DMSO-treated, AβO-treated or scrambled AβO-treated rat hippocampal slices): did not significantly change

AβO: soluble amyloid beta oligomer prepared from Aβ1-42 peptide powder (Bachem)
eIPSC amplitudes / suppression of eIPSC amplitudes following DHPG puff during 1 Hz neural spikes in peptide-treated slices ([1]; slices treated with 200 nM peptide for 20 minutes, in the presence of LY367385 100 μM): completely blocked | mGluR-LTD in the control pathway ([2]; AβO-treated compared to DMSO-treated rat hippocampal slices): not affected | induction of tLTP in the test pathway ([2]; AβO-treated rat hippocampal slices): completely blocked | protein expression levels of PLCβ1 compared to DMSO-treated slices (PLCβ1): remarkably decreased

COc1ccc2c(c1)CC[C@@H]1[C@@H]2CC[C@]2(C)[C@@H](NCCCCCCN3C(=O)C=CC3=O)CC[C@@H]12 [U73122]
synergistic enhancement in the suppression of eIPSC amplitudes (S-eCB mobilization), effect of PLCβ blocker ([1]; U73122 5 μM, DMSO-treated rat hippocampal slices, similar in AβO- and scrambled AβO-treated slices): completely blocked

N[C@H](CCCP(=O)(O)O)C(=O)O [D-AP5, D-2-amino-5-phosphonovaleric acid]
mGluR5-mediated LTD in the presence of antagonist [2, 3]: induced in both the test and control pathways | tLTP induction (EPSP slope, test pathway), effect of antagonist [2, 3]: completely blocked

Cc1c(C(=O)NN2CCCCC2)nn(-c2ccc(Cl)cc2Cl)c1-c1ccc(I)cc1 [AM251]
effect on the DHPG-induced decrease of eIPSC amplitude (eCB mobilization) ([1]; AM251 3 μM, DHPG puff alone): blocked the decrease in amplitude
